From ChEMBL document CHEMBL5344452, “TYK2 Inhibitors for Treating Autoimmune and Inflammatory Diseases” (ACS Med Chem Lett, 2024) come the findings set out here.

The target of the assay is Non-receptor tyrosine-protein kinase TYK2 (Homo sapiens, UniProt P29597). The assay can be described thus: Inhibition of human TYK2 JH2 domain (575 to 876 residues) incubated for 60 mins by TR-FRET assay. (In general: In TR-FRET formats the signal depends on donor and acceptor labels being close together.)

Usually IC50 stands for the midpoint of a concentration-inhibition curve. A higher IC50 goes with a need for much substance.

Chain of Non-receptor tyrosine-protein kinase TYK2 (P29597 whole entry, the tested form may be a part): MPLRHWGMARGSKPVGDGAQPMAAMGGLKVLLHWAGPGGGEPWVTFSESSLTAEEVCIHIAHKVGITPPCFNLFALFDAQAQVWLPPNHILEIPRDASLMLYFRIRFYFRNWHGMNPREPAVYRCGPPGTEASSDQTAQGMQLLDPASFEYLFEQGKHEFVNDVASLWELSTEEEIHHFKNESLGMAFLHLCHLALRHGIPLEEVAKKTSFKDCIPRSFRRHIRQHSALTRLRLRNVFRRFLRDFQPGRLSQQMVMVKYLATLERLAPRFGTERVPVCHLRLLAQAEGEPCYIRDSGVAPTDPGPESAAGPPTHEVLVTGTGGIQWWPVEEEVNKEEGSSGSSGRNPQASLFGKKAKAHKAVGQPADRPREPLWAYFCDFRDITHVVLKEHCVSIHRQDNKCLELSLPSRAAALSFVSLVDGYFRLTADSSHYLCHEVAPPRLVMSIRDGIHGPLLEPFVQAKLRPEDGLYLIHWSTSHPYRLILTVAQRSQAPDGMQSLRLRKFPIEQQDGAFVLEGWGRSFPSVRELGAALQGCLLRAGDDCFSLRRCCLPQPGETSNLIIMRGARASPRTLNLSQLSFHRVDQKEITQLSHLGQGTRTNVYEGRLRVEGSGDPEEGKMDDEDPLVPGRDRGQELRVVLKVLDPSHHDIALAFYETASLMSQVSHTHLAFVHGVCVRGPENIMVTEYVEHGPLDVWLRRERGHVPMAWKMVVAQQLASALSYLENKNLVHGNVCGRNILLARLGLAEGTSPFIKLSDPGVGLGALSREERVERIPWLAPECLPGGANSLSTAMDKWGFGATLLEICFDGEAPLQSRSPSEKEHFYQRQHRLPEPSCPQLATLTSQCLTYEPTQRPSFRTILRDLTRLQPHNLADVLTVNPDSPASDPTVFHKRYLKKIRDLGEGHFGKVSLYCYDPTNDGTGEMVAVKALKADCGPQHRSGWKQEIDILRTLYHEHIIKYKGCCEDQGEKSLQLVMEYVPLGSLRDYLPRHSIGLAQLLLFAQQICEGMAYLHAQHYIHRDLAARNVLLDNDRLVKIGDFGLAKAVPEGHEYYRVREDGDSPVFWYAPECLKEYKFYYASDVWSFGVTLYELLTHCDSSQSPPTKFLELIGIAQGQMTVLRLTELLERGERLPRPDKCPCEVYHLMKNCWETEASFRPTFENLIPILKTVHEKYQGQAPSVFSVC

`CC(=O)Nc1cc2c(cn1)c(N1CC3(COC3)C1)nn2-c1nccc(C(C)(F)F)n1` showed a 50% inhibitory concentration (IC50) of no more than 0.01 µM. Regarding `CC(=O)Nc1cc2c(cn1)c(C)nn2-c1cccc(C2CCOC2)n1` (stereo unspecified), the half-inhibitory concentration (IC50) was no more than 0.01 µM. Consider `CC(=O)Nc1cc2c(cn1)c(-c1ccn(C)n1)nn2-c1ccnc(C(C)(F)F)n1`, for which the IC50 was no more than 0.01 µM. Take `COC1CC(Oc2cc(C3CCOC3)nc(-n3nc(C4CC4)c4cnc(NC(C)=O)cc43)c2)C1` (stereo unspecified): the IC50 is no more than 0.01 µM. `CC(=O)Nc1cc2c(cn1)c(-c1ccc(C)nc1)nn2-c1ccnc(C(C)(F)F)n1` showed an IC50 of no more than 0.01 µM. Molecule `CC(=O)Nc1cc2c(cn1)c(C)nn2-c1nc(C2CCOC2)c(C)s1` (stereo unspecified) registered an IC50 of no more than 0.01 µM.
